Assay results from patent US8034811B2, “Hydroxamic acid esters and pharmaceutical use thereof” (Leo Pharma A/S, priority 2003, dated 2011).

biological target: T1, human intracellular domain of KDR (VEGF Receptor-2) (Homo sapiens, UniProt P35968); experiment: In vitro KDR kinase assay; assay type: biochemical; settings: IC50 as molar concentration; GST-KDR-cyt, substrate phospholipase Cγ, ATP 100 μM, 30 min room temperature, time-resolved fluorometry
T1 construct: A fusion protein containing the intracellular domain (amino acids 793 to 1357) of the KDR and N-terminally tagged to GST; made in house; host or cells: Sf9 insect cells (baculovirus, pDEST20) for GST-KDR-cyt; E. coli BL21 (pGEX-4T-1) for GST-PLCγ
T1 sequence (P35968 794-1356 limits assumed): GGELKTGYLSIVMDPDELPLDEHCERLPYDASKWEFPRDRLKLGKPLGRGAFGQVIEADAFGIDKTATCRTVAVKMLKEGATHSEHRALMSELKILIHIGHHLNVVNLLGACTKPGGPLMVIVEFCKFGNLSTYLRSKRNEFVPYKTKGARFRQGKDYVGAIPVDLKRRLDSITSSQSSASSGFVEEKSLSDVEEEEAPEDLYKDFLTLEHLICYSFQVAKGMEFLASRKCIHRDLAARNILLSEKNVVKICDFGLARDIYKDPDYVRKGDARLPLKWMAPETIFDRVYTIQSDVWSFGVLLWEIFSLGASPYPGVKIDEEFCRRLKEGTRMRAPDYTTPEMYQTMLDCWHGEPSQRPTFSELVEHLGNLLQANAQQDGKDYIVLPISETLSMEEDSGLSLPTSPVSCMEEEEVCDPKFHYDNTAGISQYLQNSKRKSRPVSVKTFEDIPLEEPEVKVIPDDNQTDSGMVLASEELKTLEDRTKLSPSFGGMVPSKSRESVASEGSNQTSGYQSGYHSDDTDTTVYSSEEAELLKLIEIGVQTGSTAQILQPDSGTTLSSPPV
Description: The intracellular domain of the KDR receptor was used in the in vitro KDR assay. This domain contains the tyrosine kinase domain of KDR, and when expressed in Sf9 cells, this domain is constitutively active i.e. the kinase domain is phosphorylated on tyrosine residues.
The compounds to be tested were dissolved in DMSO at 10 mM, stored at −20° C. and protected from light. The maximum concentration of DMSO in the in vitro assay was 0.1%. Control samples received the same concentration of solvent as the samples treated with the test compounds.
For the kinase assays, black 96 wells MaxiSorp microtiter plates were coated by an overnight incubation with 100 μl/well of a 2.5 μg/ml solution of phospholipase Cγ in TBS buffer (40 mM Tris-HCl, pH 7.4, 20 mM Mg(C2H3O2)2, 0.02% NaN3) at 4° C. The plates were washed 3 times with TBS buffer containing 0.1% Tween-20, and the residual binding sites were masked by incubation with 1% BSA in TBS buffer containing 0.1% Tween-20 for 1 h. The plates were washed again and the test compounds were added at final concentrations up to 10 μM, together with ATP at the final concentration of 100 μM in 50 μl TBS buffer/well. Then, 50 μl of the human intracellular domain of KDR (VEGF Receptor-2) finally diluted 3000-3500 fold were added and were incubated for 30 min at room temperature. The plates were washed and 100 μl of the Europium labelled PY-20 anti-phosphotyrosine antibody (Wallac, FIN) were incubated in each well at the concentration of approximately 114 ng/ml for 2 h. Then, the plates were washed and 100 μl of enhancer solution (Wallac, FIN) were incubated in each well for 5 min in the dark. The plates were read in a Victor 1420 multilabel counter, using a Europium protocol for time-resolved fluorometry (Wallac, FIN): excitation 340 nm, emission 615 nm, sample pulse cycle 400 μs. Fluorescence was measured for 400 μs between flashes after a delay time of 400 μs. The background measured in the absence of enzyme was subtracted from all samples. The molar concentrations that inhibited 50% of the maximal enzymatic activity (IC50) were calculated from the dose-response curve, by fitting a straight line between the two concentrations immediately above and below the 50% inhibition point (i.e. by solving the equation y=a+bx).

| IC50 [nM] | SMILES |
| --- | --- |
| 15.8 | O=C(NOCC1CCC1)c1ccccc1NCc1ccncc1 [Compound 119, N-Cyclobutylmethoxy-2-[(pyridin-4-ylmethyl)-amino]-benzamide] |
| 39.8 | O=C(NOCC1CCCCC1)c1ccccc1NCc1ccncc1 [Compound 120, N-Cyclohexylmethoxy-2-[(pyridin-4-ylmethyl)-amino]-benzamide] |
| 79.4 | CCCc1cc(CONC(=O)c2ccccc2NCc2ccncc2)on1 [Compound 110, N-(3-Propyl-isoxazol-5-ylmethoxy)-2-[(pyridin-4-ylmethyl)-amino]-benzamide] |
| 50.1 | O=C(NOCc1cnc(Cl)s1)c1ccccc1NCc1ccncc1 [Compound 106, N-(2-Chloro-thiazol-5-ylmethoxy)-2-[(pyridin-4-ylmethyl)-amino]-benzamide] |
| 100 | O=C(NOCc1csc(-c2ccccc2)n1)c1ccccc1NCc1ccncc1 [Compound 107, N-(2-Phenyl-thiazol-4-ylmethoxy)-2-[(pyridin-4-ylmethyl)-amino]-benzamide] |
| 100 | Cc1nc(CONC(=O)c2ccc(F)cc2NCc2ccncc2)cs1 [Compound 143, 4-Fluoro-N-(2-methyl-thiazol-4-ylmethoxy)-2-[(pyridin-4-ylmethyl)amino]-benzamide] |
| 2.51 | O=C(NOCC1CCCC1)c1ccccc1NCc1ccncc1 [Compound 113, N-Cyclopentylmethoxy-2-[(pyridin-4-ylmethyl)-amino]-benzamide] |
| 63.1 | COc1ccc(CNc2ccccc2C(=O)NOCc2ccc(C#N)cc2OC)cn1 [compound 235] |
| 25.1 | CC1(C)[C@H]2CC[C@@H](CONC(=O)c3ccccc3NCc3ccncc3)[C@@H]1C2 [Compound 134] |
| 20 | Cc1nc(CONC(=O)c2ccccc2NCc2ccncc2)cs1 [Compound 32, N-(2-methyl-thiazol-4 ylmethoxy)-2-[(pyridin-4-ylmethyl)-amino]-benzamide] |
| 20 | O=C(NOCC1C[C@@H]2CC[C@H]1C2)c1ccccc1NCc1ccncc1 (stereo in doubt) [Compound 133, N-(Bicyclo[2.2.1]hept-2-ylmethoxy)-2-[(pyridin-4-ylmethyl)-amino]-benzamide] |
| 15.8 | N#Cc1ccc(CONC(=O)c2ccccc2NCc2ccncc2)c(Cl)c1 [Compound 78, N-(2-Chloro-4-cyano-benzyloxy)-2-[(pyridin-4-ylmethyl)-amino]-benzamide] |
| 25.1 | O=C(NOCc1c(Cl)cccc1Cl)c1ccccc1NCc1ccncc1 [Compound 16, N-(2,6-Dichloro-benzyloxy)-2-[(pyridin-4-ylmethyl)-amino]-benzamide] |
| 63.1 | CC(Nc1ccccc1C(=O)NOCc1ccc(C#N)cc1)c1ccncc1 (stereo not drawn) [compound 244] |
| 6.31 | N#Cc1ccc(CONC(=O)c2ccccc2NCc2ccnc(NC(=O)CO)c2)cc1 [compound 224] |
| 50.1 | Nc1ccccc1CONC(=O)c1ccccc1NCc1ccncc1 [Compound 85, N-(2-Amino-benzyloxy)-2-[(pyridin-4-ylmethyl)-amino]-benzamide] |
| 15.8 | N#Cc1ccc(CONC(=O)c2ccccc2NCc2ccncc2)c2ccccc12 [Compound 82, N-(4-Cyano-naphthalen-1-ylmethoxy)-2-[(pyridin-4-ylmethyl)-amino]-benzamide] |
| 10 | N#Cc1ccc(CONC(=O)c2ccccc2NCc2ccnc(NC(=O)NCC(=O)O)c2)cc1 [compound 216] |
| 50.1 | O=C(NOCc1ccc(F)cc1)c1ccccc1NCc1ccc2occc2c1 [Compound 199, 2-[(Benzofuran-5-ylmethyl)-amino]-N-(4-fluoro-benzyloxy)-benzamide] |
| 63.1 | O=C(NOCc1ccccc1)c1ccccc1NCc1ccc2occc2c1 [Compound 198, 2-[(Benzofuran-5-ylmethyl)-amino]-N-benzyloxy-benzamide] |
| 50.1 | N#Cc1ccc(CONC(=O)c2cccnc2NCc2ccncc2)c(Cl)c1 [Compound 157, N-(2-Chloro-4-cyano-benzyloxy)-2-[(pyridin-4-ylmethyl)-amino]-nicotinamide] |

| IC50 [nM] | SMILES |
| --- | --- |
| 7.94 | Nc1cc(CNc2ccccc2C(=O)NOCC2CCCC2)ccn1 [compound 229] |
| 50.1 | O=C(NOCc1ccc(Br)cc1)c1ccccc1NCc1ccncc1 [Compound 44, N-(4-Bromo-benzyloxy)-2-[(pyridin-4-ylmethyl)-amino]-benzamide] |
| 79.4 | O=C(NOCc1ccc(OC(F)(F)F)cc1)c1ccccc1NCc1ccncc1 [Compound 68, 2-[(Pyridin-4-ylmethyl)-amino]-N-(4-trifluoromethoxy-benzyloxy)-benzamide] |
| 63.1 | O=C(NOC1CCCCC1)c1ccccc1NCc1ccncc1 [Compound 124, N-Cyclohexyloxy-2-[(pyridin-4-ylmethyl)-amino]-benzamide] |
| 39.8 | O=C(NOCc1ccccc1-c1cccs1)c1ccccc1NCc1ccncc1 [Compound 98, 2-[(Pyridin-4-ylmethyl)-amino]-N-(2-thiophen-2-yl-benzyloxy)-benzamide] |
| 39.8 | COc1cc(C#N)ccc1CONC(=O)c1ccccc1NCc1ccncc1 [Compound 79, N-(4-Cyano-2-methoxy-benzyloxy)-2-[(pyridin-4-ylmethyl)-amino]-benzamide] |
| 100 | O=C(NOCc1ccccc1[N+](=O)[O-])c1ccccc1NCc1ccncc1 [Compound 3, N-(2-Nitro-benzyloxy)-2-[(pyridin-4-ylmethyl)-amino]-benzamide] |
| 10 | Cc1cc(F)cc(C)c1CONC(=O)c1ccccc1NCc1ccncc1 [Compound 38, N-(4-Fluoro-2,6-dimethyl-benzyloxy)-2-[(pyridin-4-ylmethyl)-amino]-benzamide] |
| 10 | CNC(=O)Nc1cc(CNc2ccccc2C(=O)NOCC2CCCC2)ccn1 [Compound 212, N-Cyclopentylmethoxy-2-{[2-(3-methyl-ureido)-pyridin-4-ylmethyl]-amino}-benzamide] |
| 39.8 | N#Cc1ccc(CONC(=O)c2ccccc2NCc2ccnc(N)c2)cc1 [Compound 206, 2-[(2-Amino-pyridin-4-ylmethyl)-amino]-N-(4-cyano-benzyloxy)-benzamide] |
| 15.8 | Cc1ccc(CONC(=O)c2ccccc2NCc2ccncc2)cc1 [Compound 47, N-(4-Methyl-benzyloxy)-2-[(pyridin-4-ylmethyl)-amino]-benzamide] |
| 31.6 | O=C(NOCc1ccccc1F)c1ccccc1NCc1ccncc1 [Compound 20, N-(2-Fluoro-benzyloxy)-2-[(pyridin-4-ylmethyl)-amino]-benzamide] |
| 39.8 | N#Cc1ccc(CONC(=O)c2ccccc2NCc2ccncc2)c(I)c1 [Compound 80, N-(4-Cyano-2-iodo-benzyloxy)-2-[(pyridin-4-ylmethyl)-amino]-benzamide] |
| 7.94 | O=C(O)CNC(=O)Nc1cc(CNc2ccccc2C(=O)NOCC2CCCC2)ccn1 [compound 217] |
| 20 | O=C(NOCc1c(F)cccc1C(F)(F)F)c1ccccc1NCc1ccncc1 [Compound 60, N-(2-Fluoro-6-trifluoromethyl-benzyloxy)-2-[(pyridin-4-ylmethyl)-amino]-benzamide] |
| 79.4 | N#Cc1ccc(CONC(=O)c2cccnc2NCc2ccncc2)c(F)c1 [Compound 158, N-(4-Cyano-2-fluoro-benzyloxy)-2-[(pyridin-4-ylmethyl)-amino]-nicotinamide] |
| 12.6 | N#Cc1ccc(CONC(=O)c2ccccc2NCc2ccncc2)cc1 [Compound 27, N-(4-cyano-benzyloxy)-2-[(pyridin-4-ylmethyl)-amino]-benzamide] |
| 6.31 | O=C(NOCc1ccc(Cl)cc1Cl)c1ccccc1NCc1ccncc1 [Compound 14, N-(2,4-Dichloro-benzyloxy)-2-[(pyridin-4-ylmethyl)-amino]-benzamide] |
| 7.94 | O=C(NOCCC1CCCC1)c1ccccc1NCc1ccncc1 [Compound 126, N-(2-Cyclopentyl-ethoxy)-2-[(pyridin-4-ylmethyl)-amino]-benzamide] |
| 63.1 | O=C(NOCc1cccc2ccccc12)c1ccccc1NCc1ccncc1 [Compound 100, N-(Naphthalen-1-ylmethoxy)-2-[(pyridin-4-ylmethyl)-amino]-benzamide] |
| 63.1 | Cc1ccc(CONC(=O)c2ccccc2NCc2ccncc2)cc1C(F)(F)F [Compound 62, N-(4-Methyl-3-trifluoromethyl-benzyloxy)-2-[(pyridin-4-ylmethyl)-amino]-benzamide] |
